For orientation: inhibition means the drop in the measured response relative to a control, in per cent. For orientation: IC50 means the midpoint of a concentration-inhibition curve.

One compound from patent US10544106B2, “Certain chemical entities, compositions, and methods” (NeuPharma, Inc., priority 2016, dated 2020) can be followed below.

One assay has as its target EGFR (ErbB1) L858R/T790M (Homo sapiens (Human), UniProt P00533, L858R/T790M). Nature of the assay: Z'-LYTE kinase inhibition assay against EGFR L858R/T790M. The class given is biochemical. Conditions: compound at 100 nM; ATP concentration at Km. The protocol: (§1) Inhibitory activities of compounds against BTK, EGFR T790M, EGFR L858R, and EGFR L858R/T790M were measured using Z′-LYTE® Method from Life Technologies as briefly described in the following.
(§2) Test Compounds are screened in 1% DMSO (final) in the well. For 10 point titrations, 3-fold serial dilutions are conducted from the starting concentration. All ATP Solutions are diluted to a 4× working concentration in Kinase Buffer (50 mM HEPES pH 7.5, 0.01% BRIJ-35, 10 mM MgCl2, 1 mM EGTA). Peptide/Kinase Mixtures are diluted to a 2× working concentration in the appropriate Kinase Buffers as described below. • (i) Peptide/Kinase Mixtures for measurement of EGFR (ErbB1) L858R: • The 2×EGFR (ErbB1) L858R/Tyr 04 mixture is prepared in 50 mM HEPES pH 7.5, 0.01% BRIJ-35, 10 mM MgCl2, 4 mM MnCl2. 1 mM EGTA, 2 mM DTT. The final 10 μL Kinase Reaction consists of 0.2-1.68 ng EGFR (ErbB1) L858R and 2 μM Tyr 04 in 50 mM HEPES pH 7.5, 0.01% BRIJ-35, 10 mM MgCl2, 2 mM MnCl2, 1 mM EGTA, 1 mM DTT. After the 1 hour Kinase Reaction incubation, 5 μL of a 1:64 dilution of Development Reagent B is added. • (ii) Peptide/Kinase Mixtures for measurement of EGFR (ErbB1) T790M: The 2×EGFR (ErbB1) T790M/Tyr 04 mixture is prepared in 50 mM HEPES pH 6.5, 0.01% BRIJ-35, 10 mM MgCl2, 1 mM EGTA, 0.02% NaN3. The final 10 μL Kinase Reaction consists of 3.9-30.2 ng EGFR (ErbB1) T790M and 2 μM Tyr 04 in 50 mM HEPES pH 7.0, 0.01% BRIJ-35, 10 mM MgCl2, 1 mM EGTA, 0.01% NaN3. After the 1 hour Kinase Reaction incubation, 5 μL of a 1:64 dilution of Development Reagent B is added. • (iii) Peptide/Kinase Mixtures for measurement of EGFR (ErbB1) L858R/T790M: The 2×EGFR (ErbB1) T790M L858R/Tyr 04 mixture is prepared in 50 mM HEPES pH 6.5, 0.01% BRIJ-35, 10 mM MgCl2, 1 mM EGTA, 0.02% NaN3. The final 10 μL Kinase Reaction consists of 0.38-4.22 ng EGFR (ErbB1) T790M L858R and 2 μM Tyr 04 in 50 mM HEPES pH 7.0, 0.01% BRIJ-35, 10 mM MgCl2, 1 mM EGTA, 0.01% NaN3. After the 1 hour Kinase Reaction incubation, 5 μL of a 1:64 dilution of Development Reagent B is added. • (iv) Peptide/Kinase Mixtures for measurement of BTK: The 2×BTK/Tyr 01 mixture is prepared in 50 mM HEPES pH 7.5, 0.010/BRIJ-35, 10 mM MgCl2, 1 mM EGTA. The final 10 μL Kinase Reaction consists of 1.04-10.4 ng BTK and 2 μM Tyr 01 in 50 mM HEPES pH 7.5, 0.01% BRIJ-35, 10 mM MgCl2, 1 mM EGTA. After the 1 hour Kinase Reaction incubation, 5 μL of a 1:256 dilution of Development Reagent B is added.
(§3) Reaction starts by 30-second shaking of mixture consisting of 2.5 μL 4× test compound, 5 μL 2× kinase reaction mixture and 2.5 μL 4×ATP Solution on Bar-coded Corning, low volume NBS, black 384-well plate (Corning Cat. #3676). Then the mixture is incubated for 60-minute at room temperature for the kinase reaction, followed by addition of 5 μL of a 1:1024 dilution of development reagent A and 30-second plate shake. The mixture is then incubated for another 60-minute at room temperature for development reaction. Finally fluorescence is read by plate reader.
(§4) The Z′-LYTE assay was carried out with ATP concentration at Km. The scale utilized in Tables 2-6 is as follows: ++ more than 50% inhibition and + less than 50% inhibition.

In the next assay the target is EGFR (ErbB1) L858R (Homo sapiens (Human), UniProt P00533, L858R). Nature of the assay: Z'-LYTE kinase inhibition assay against EGFR L858R. Type of assay: biochemical. To be noted: compound at 100 nM; ATP concentration at Km. The protocol: as §1, §2, §3, §4
Chain of EGFR (ErbB1) L858R (P00533 25-1210 L858R): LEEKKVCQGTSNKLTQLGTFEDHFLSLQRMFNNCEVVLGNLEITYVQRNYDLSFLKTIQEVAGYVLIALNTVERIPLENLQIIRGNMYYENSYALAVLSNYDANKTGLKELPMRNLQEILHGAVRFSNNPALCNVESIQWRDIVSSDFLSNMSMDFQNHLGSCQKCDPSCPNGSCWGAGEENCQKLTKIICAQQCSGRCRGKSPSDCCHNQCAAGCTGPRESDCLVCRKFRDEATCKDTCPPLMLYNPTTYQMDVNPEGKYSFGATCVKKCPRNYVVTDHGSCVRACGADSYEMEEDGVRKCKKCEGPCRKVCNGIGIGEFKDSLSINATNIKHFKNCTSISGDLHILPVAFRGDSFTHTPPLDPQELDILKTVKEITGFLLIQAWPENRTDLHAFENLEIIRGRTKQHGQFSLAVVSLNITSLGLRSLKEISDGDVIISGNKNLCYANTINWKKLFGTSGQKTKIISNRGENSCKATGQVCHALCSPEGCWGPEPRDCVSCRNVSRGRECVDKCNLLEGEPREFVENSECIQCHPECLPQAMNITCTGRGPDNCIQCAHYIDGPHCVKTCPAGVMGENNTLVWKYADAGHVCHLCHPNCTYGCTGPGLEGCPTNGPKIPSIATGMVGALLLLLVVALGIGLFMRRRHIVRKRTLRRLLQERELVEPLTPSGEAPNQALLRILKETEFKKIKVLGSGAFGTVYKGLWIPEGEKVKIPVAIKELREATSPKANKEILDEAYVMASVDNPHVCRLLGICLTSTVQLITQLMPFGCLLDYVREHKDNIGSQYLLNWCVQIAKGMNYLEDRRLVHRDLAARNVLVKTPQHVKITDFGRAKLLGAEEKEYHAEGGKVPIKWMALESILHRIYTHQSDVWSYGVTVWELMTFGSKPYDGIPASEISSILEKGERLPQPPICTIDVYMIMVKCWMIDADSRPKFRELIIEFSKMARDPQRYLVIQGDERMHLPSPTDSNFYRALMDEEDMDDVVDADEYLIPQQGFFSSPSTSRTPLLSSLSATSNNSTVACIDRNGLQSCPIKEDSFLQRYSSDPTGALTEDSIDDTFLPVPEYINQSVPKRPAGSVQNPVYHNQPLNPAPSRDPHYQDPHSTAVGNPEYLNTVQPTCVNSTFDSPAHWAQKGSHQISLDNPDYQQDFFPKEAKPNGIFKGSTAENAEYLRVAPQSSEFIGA
The subject of a further assay is OCI-Ly10 cells. Nature of the assay: OCI-Ly10 cell proliferation assay (Alamar Blue, 72 hours). The class given is cell-based. To be noted: Homo sapiens.
The next assay has as its target EGFR (ErbB1) T790M (Homo sapiens (Human), UniProt P00533, T790M). Nature of the assay: Z'-LYTE kinase inhibition assay against EGFR T790M. The class given is biochemical. To be noted: compound at 100 nM; ATP concentration at Km. How it is done:
as §1, §2, §3, §4

The next assay concerns the target BTK (Homo sapiens (Human), UniProt Q06187). Nature of the assay: Z'-LYTE kinase inhibition assay against BTK. Type of assay: biochemical. A digest of the protocol: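 Z′-LYTE FRET readout: 1.04-10.4 ng BTK with 2 μM Tyr 01 peptide, ATP at Km, in 50 mM HEPES pH 7.5, 10 mM MgCl2, 1 mM EGTA, 0.01% BRIJ-35, 1% DMSO. 60 min kinase reaction at room temperature, then 60 min development; IC50 from 10-point, 3-fold titrations.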

For the next assay, the target named is EGFR del746_750 (Homo sapiens (Human), UniProt P00533, DEL746-750). Nature of the assay: SelectScreen Lantha method (Eu-anti-GST antibody/tracer) for EGFR del746_750. The class given is binding. To be noted: compound at 100 nM; read-out: % Inhibition against EGFR del745_750. How it is done:
SelecteScreen's Lantha® method from Life Technologies was used to measure compound's activities in inhibition of EGFR del746_750.
Test Compounds are screened in 1% DMSO (final) in the well. For 10 point titrations, 3-fold serial dilutions are conducted from the starting concentration. • Components for EGFR del745_750: • Kinase Buffer A: 50 mM HEPES pH 7.5, 0.01% BRIJ-35, 10 mM MgCl2, 1 mM EGTA • Kinase/Antibody Mixtures for EGFR del745_ 750: EGFR del745_ 750 10 nM, Antibody: Eu-anti-GST 2 nM, Tracer 199 10 nM, Inhibitor: SB202190 88.2 nM, All Kinase/Antibody Mixtures are diluted to a 2× working concentration in the appropriate Kinase Buffer • Tracer: The 4× AlexaFluor® labeled Tracer is prepared in Kinase Buffer.
To start the measurement, the following components are added to individual wells of bar-coded, low volume, white 384-well plate (Greiner Cat. #784207): • 1. 160 nL—100× Test Compound in 100% DMSO. • 2. 3.84 μL—Kinase Buffer: • 3. 8.0 μL—2× Kinase/Antibody Mixture • 4. 4.0 μL—4× Tracer The mixture above is then shaken for 30-second following by 60-minute incubation at room temperature. Finally the plate is read on fluorescence plate reader.
as §4

Chain of BTK (Q06187 whole entry): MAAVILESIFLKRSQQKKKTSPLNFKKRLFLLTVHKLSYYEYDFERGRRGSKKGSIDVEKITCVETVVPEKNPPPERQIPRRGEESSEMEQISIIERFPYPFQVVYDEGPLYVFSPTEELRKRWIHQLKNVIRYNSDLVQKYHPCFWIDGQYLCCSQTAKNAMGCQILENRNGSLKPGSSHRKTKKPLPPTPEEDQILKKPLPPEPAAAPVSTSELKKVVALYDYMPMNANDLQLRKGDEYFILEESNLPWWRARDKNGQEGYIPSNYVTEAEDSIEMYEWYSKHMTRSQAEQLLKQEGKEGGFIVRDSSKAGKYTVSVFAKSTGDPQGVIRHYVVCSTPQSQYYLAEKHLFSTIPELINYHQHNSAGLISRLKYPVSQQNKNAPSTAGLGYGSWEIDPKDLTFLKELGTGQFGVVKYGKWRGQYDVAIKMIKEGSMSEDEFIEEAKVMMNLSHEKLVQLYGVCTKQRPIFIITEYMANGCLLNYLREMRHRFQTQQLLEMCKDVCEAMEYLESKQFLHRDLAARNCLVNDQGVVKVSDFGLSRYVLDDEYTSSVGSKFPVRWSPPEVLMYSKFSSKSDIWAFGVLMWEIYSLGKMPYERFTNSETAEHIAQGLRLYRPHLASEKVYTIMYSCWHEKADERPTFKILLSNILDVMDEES
Chain of EGFR del746_750 (P00533 other isoform, or with tags, fused parts or gaps del E746-A750): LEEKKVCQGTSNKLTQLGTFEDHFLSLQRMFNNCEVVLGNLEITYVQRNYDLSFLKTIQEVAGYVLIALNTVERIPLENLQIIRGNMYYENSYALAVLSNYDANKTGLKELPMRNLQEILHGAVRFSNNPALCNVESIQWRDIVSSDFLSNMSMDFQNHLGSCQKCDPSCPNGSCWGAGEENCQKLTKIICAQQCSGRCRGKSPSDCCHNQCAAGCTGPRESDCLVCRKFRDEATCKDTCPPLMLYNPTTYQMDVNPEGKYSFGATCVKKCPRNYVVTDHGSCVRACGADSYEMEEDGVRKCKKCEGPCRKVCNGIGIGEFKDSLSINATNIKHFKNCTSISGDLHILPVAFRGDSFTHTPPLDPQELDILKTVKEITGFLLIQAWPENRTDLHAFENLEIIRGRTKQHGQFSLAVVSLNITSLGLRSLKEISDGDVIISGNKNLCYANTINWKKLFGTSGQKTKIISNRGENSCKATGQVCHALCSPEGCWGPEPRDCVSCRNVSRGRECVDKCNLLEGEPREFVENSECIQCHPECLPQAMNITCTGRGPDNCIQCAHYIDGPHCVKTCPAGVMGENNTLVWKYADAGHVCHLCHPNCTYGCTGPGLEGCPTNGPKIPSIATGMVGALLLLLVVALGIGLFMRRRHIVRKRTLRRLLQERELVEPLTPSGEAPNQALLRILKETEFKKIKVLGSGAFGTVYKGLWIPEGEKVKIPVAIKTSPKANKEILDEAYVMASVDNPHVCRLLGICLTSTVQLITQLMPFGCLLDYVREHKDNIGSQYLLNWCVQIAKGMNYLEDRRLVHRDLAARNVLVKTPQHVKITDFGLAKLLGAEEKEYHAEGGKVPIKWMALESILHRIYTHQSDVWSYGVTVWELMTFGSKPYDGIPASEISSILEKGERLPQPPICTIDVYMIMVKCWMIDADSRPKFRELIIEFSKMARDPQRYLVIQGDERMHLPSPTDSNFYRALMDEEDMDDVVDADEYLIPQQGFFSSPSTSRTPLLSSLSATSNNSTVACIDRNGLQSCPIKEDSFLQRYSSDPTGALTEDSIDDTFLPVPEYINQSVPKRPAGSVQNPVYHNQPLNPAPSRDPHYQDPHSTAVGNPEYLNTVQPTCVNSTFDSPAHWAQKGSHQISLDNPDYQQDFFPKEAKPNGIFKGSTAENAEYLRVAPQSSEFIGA
Chain of EGFR (ErbB1) L858R/T790M (P00533 25-1210 T790M/L858R): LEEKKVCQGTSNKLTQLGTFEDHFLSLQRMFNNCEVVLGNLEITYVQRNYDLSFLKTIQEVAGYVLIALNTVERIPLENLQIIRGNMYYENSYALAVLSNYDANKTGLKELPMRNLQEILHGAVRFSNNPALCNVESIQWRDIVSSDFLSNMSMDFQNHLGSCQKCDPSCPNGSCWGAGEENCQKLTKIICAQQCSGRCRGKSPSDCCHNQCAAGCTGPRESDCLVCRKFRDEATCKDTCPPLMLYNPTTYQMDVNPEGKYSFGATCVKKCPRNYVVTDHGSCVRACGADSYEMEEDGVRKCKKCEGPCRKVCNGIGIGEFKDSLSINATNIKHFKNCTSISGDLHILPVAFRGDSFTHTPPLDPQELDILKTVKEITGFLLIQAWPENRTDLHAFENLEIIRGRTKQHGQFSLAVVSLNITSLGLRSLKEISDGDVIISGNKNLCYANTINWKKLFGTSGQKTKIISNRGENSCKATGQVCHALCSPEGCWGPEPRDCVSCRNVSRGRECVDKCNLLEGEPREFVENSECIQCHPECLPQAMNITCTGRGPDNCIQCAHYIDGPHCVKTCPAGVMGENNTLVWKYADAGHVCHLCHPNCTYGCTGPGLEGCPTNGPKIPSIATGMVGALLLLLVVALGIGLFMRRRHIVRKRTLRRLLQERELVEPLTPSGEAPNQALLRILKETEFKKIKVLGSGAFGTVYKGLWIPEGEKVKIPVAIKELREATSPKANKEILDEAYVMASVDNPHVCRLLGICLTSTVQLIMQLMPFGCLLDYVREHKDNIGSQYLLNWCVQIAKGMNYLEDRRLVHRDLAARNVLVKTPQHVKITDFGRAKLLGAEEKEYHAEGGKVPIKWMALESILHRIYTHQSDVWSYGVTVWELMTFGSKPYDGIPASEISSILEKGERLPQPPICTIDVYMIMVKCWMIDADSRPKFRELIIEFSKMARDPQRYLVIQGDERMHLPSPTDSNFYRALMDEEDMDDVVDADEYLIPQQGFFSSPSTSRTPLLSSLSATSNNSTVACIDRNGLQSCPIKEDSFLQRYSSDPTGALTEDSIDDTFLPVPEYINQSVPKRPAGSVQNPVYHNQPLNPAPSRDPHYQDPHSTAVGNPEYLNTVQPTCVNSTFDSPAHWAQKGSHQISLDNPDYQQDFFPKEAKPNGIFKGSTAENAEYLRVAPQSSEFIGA

Take `C=CC(=O)Nc1cccc(-c2cc(-c3ccc(C(=O)Nc4ccccn4)cc3Cl)cc3cncnc23)c1` [C052, 4-(8-(3-acrylamidophenyl)quinazolin-6-yl)-3-chloro-N-(pyridin-2-yl)benzamide]: the inhibition at 0.1 µM was less than 50% against EGFR (ErbB1) L858R/T790M; less than 50% against EGFR (ErbB1) L858R; less than 50% against EGFR (ErbB1) T790M; greater than 50% against BTK (compound at 100 nM, ATP concentration at Km); less than 50% at EGFR del746_750. The IC50 is less than 50 nM with OCI-Ly10 cells and less than 100 nM on BTK (series of concentrations, GraphPad Prism 5).
